Data as given in publication PMC4591261, “Design, Synthesis and Evaluation of 2,5-Diketopiperazines as Inhibitors of the MDM2-p53 Interaction” (PLoS ONE, 2015).
“And” between values parts separate entries of the source, which are not always exact repeats. Equal values may be shown once.

Experiments:
GST-MDM2 (1 – 188) = GST-MDM2 (1 – 188) (Homo sapiens, UniProt Q00987); assay: Fluorescence polarisation (FP) assay, displacement of Texas Red labeled wild-type p53 peptide from MDM2; assay type: binding; details: for activity in the FP-assay (in words): tested concentrations up to 100 μM; for IC50: 1 μM GST-MDM2 (1-188), 15 nM Texas Red labeled wild-type p53 peptide, 1 h at r.t., 95% CI
Method: To evaluate the 2,5-DKPs as potential MDM2-p53 inhibitors, the same FP-assay was used as for the type III inhibitors.
The FP assay was performed in black 384-well microtiter plates at a final volume of 20 μL per well. […] Two to seven independent experiments of normalized data were combined into a data set, and then fit using a non-linear regression in GraphPad Prism with the formula log(inhibitor) vs. response – Variable slope (four parameters). Additionally the residuals of the curve fit were plotted to determine the fit of the theoretical curve. IC50 and 95% confidence intervals (CI) were determined from these graphs.

MDM2 [1] = biological target: T1, MDM2 (Homo sapiens, UniProt Q00987); assay: WaterLOGSY NMR binding experiment; details: compound 200 µM, MDM2 protein 5 µM, 298 K
Method: All NMR experiments were performed at 298 K (25 °C) using a Bruker Avance 600 MHz spectrometer equipped with TCI cryogenic gradient probe. Compounds (20 mM stock solution in DMSO-D6) were added to buffer (25mM HEPES, pH7.2, 150 mM NaCl, 2mM TCEP) or buffer containing MDM2 protein (5 µM) to give final compound concentration of 200 µM. One-dimensional (1D) ^1H- and WaterLOGSY (water-ligand observed via gradient spectroscopy)^8 NMR spectra were recorded for compounds, protein, and compounds plus protein, respectively. NMR spectra were processed using Bruker Topspin software.

MDM2 [2] = biological target: T1, MDM2; assay: Surface plasmon resonance (SPR) binding to biotinylated MDM2; details: 1:1 interaction model, 20 °C; for Rmax (RU): SPR
Method: To confirm binding to the target, surface plasmon resonance (SPR) was used to study interactions of 52RR and 52RS with MDM2 [41, 42].
MDM2 was minimally biotinylated by reaction with EZ-Link Sulfo-NHS-LC-LC-Biotin (Thermo Scientific). The biotin reagent was added to the protein at a 0.5:1 molar ratio, and the reaction was incubated on ice for 3-4 hours. Unconjugated biotin was removed by processing the samples through two Zeba Spin Desalting Columns (Thermo Scientific) that had been equilibrated with storage buffer (20 mM Bis-Tris pH 6.5, 200 mM NaCl, 20 mM dithiothreitol, 20% glycerol). Bovine serum albumin (BSA) was added to the reaction at a final concentration of 0.1 mg/mL immediately prior to processing through the spin columns to improve recovery.^2 The biotinylated protein was aliquotted, flash-frozen and stored at -80° C for use in subsequent binding experiments.
SPR experiments were conducted at 20 °C using a SensiQ Pioneer optical biosensor (SensiQ Technologies). Neutravidin (Thermo Scientific) was covalently immobilized on a polysaccharide hydrogel-coated gold surface (COOH5 chip; SensiQ Technologies) using routine amine coupling chemistry in immobilization buffer (10 mM HEPES pH 7.4, 150 mM NaCl, 0.005% Tween20). Carboxyl groups on the hydrogel were activated with N-ethyl-N´-(3-dimethylaminopropyl) carbodiimide (EDC) and N-hydroxysuccinimide (NHS), and neutravidin was injected in 10 mM sodium acetate pH 5.0 until immobilization levels of ~3000-3400 RU were achieved. Remaining active sites were blocked by reaction with ethanolamine. The instrument was primed with binding buffer (20 mM Tris pH 8.0, 100 mM NaCl, 5 mM dithiothreitol, 0.005% Tween20, 5% glycerol, 5% DMSO), and biotinylated MDM2 was injected until ~1070 RU of protein was captured. Unoccupied biotin-binding sites of neutravidin on both the reference and protein surfaces were blocked with amine-PEG2-biotin (Thermo Scientific) to minimize potential non-specific binding by the compounds.^3
The data were processed, double-referenced, solvent corrected and analyzed^4 using the software package Qdat (version 2.5.5.12 , BioLogic Software). The equilibrium dissociation constants (KD) were determined by fitting the data to a 1:1 (Langmuir) interaction model.

GST-MDM2 (1 – 188), sequence (Q00987 1-188): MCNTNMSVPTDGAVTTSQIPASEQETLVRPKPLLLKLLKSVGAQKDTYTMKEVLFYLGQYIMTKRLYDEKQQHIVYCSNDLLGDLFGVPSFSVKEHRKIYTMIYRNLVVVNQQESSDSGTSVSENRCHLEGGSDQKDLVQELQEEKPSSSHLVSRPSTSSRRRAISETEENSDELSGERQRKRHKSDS
T1 sequence (Q00987 whole entry): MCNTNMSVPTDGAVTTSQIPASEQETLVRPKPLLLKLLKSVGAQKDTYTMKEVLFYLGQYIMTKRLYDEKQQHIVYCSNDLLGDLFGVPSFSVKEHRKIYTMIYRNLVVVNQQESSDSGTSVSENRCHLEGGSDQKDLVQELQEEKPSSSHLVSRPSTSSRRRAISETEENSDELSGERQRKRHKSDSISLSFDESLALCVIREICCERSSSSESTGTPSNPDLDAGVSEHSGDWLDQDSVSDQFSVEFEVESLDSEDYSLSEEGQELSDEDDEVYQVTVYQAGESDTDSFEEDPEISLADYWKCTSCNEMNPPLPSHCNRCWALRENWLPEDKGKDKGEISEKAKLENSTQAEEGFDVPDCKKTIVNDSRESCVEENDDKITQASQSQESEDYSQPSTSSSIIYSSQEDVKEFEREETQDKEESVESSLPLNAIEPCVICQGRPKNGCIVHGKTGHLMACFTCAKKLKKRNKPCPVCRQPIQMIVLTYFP

| binding to MDM2 by WaterLOGSY (in words) (MDM2 [1]) | IC50 (GST-MDM2 (1 – 188)) | Rmax (RU) (MDM2 [2]) | SMILES | activity in the FP-assay (in words) (GST-MDM2 (1 – 188)) | ka (M^-1s^-1) (MDM2 [2]; SPR kinetic analysis) | kd (s^-1) (MDM2 [2]; SPR kinetic analysis) |
| --- | --- | --- | --- | --- | --- | --- |
|  |  |  | CC(C)(C)OC(=O)CN1C(=O)[C@@H](c2ccc(Cl)cc2)N(c2ccc(Cl)cc2)C(=O)[C@H]1Cc1ccccc1 [44RR, (3R,6R)-3-Benzyl-1,6-(di-4-chlorophenyl)-4-(tert-butoxy-carbonyl-methyl)-piperazine-2,5-dione] | inactive |  |  |
|  |  |  | CC(C)(C)OC(=O)CN1C(=O)[C@H](c2ccc(Cl)cc2)N(c2ccc(Cl)cc2)C(=O)[C@H]1Cc1ccccc1 [44RS, (3R,6S)-3-Benzyl-1,6-(di-4-chlorophenyl)-4-(tert-butoxy-carbonyl-methyl)-piperazine-2,5-dione] | inactive |  |  |
| confirmed binding | 31.4 µM and 31 µM | 16.6 (± 0.2) RU | O=C(O)CN1C(=O)[C@@H](c2ccc(Cl)cc2)N(c2ccc(Cl)cc2)C(=O)[C@H]1Cc1ccccc1 [52RR, (3R,6R)-3-Benzyl-1,6-(di-4-chlorophenyl)-4-(carboxy-methyl)-piperazine-2,5-dione] |  |  |  |
| confirmed binding | 28 µM | 16.8 (± 0.2) RU | O=C(O)CN1C(=O)[C@H](c2ccc(Cl)cc2)N(c2ccc(Cl)cc2)C(=O)[C@H]1Cc1ccccc1 [52RS, (3R,6S)-3-Benzyl-1,6-(di-4-chlorophenyl)-4-(carboxy-methyl)-piperazine-2,5-dione] |  |  |  |

| SMILES | binding to MDM2 by WaterLOGSY (in words) (MDM2 [1]) | IC50 (GST-MDM2 (1 – 188)) | Rmax (RU) (MDM2 [2]) | activity in the FP-assay (in words) (GST-MDM2 (1 – 188)) | ka (M^-1s^-1) (MDM2 [2]; SPR kinetic analysis) | kd (s^-1) (MDM2 [2]; SPR kinetic analysis) |
| --- | --- | --- | --- | --- | --- | --- |
| COc1ccc(C2=N[C@@H](c3ccc(Cl)cc3)[C@@H](c3ccc(Cl)cc3)N2C(=O)N2CCNC(=O)C2)c(OC(C)C)c1 [Nutlin-3a] |  |  | 28.4 (± 0.1) RU |  | 9.10 (± 0.01) x 10^5 M^-1s^-1 | 2.80 (± 0.01) x 10^-2 s^-1 |
